Measurements reported in publication PMC9621234, “Ligand-based discovery of coronavirus main protease inhibitors using MACAW molecular embeddings” (Journal of Enzyme Inhibition and Medicinal Chemistry, 2022).
Where two headings read alike, the source gives them in different places.

Columns and labels:
SARS-CoV-2 M^pro = molecular target: T1, SARS-CoV-2 M^pro (Severe acute respiratory syndrome coronavirus 2, UniProt P0DTD1); test: biochemical; conditions: for change of inhibition results upon addition of detergent: 0.1% Triton X-100, aggregation control; for inhibition curve, in words: 0.01-20 μM
T1 construct: in vitro FRET-based assay using recombinant M^pro; purchased Beyotime P0315M

MRC-5 cells = test: Cytotoxicity, MTT test; conditions: 72 h, 100 to 3.12 μg/mL
[1] = tested on: Human coronavirus hCoV-229; format: cell-based
HCoV 229E = test: Viral titres (TCID50) in MRC-5 cells; conditions: MRC-5, 72 h, different concentrations
[2] = Figure 2(l), Trial 1, read-out: IC50
[3] = Figure 2(l), Trial 2, read-out: IC50
[4] = Figure 2(l), With Triton-X100, read-out: IC50
[5] = Figure 2 panels a-k, dose-response curve, mean ± SEM, n = 3, read-out: IC50
[6] = Figure 4, With Triton-X100 (0.1%), unit inferred, read-out: IC50
[7] = Figure 4, Without Triton-X100, unit inferred, read-out: IC50
[8] = IC50, Figure 2 panels a-k, dose-response curve, mean ± SEM, n = 3

Compound: c1ccc2sc(SSc3nc4ccccc4s3)nc2c1 [Compound 1]
- change of inhibition results upon addition of detergent (SARS-CoV-2 M^pro): did not change significantly
- IC50 (SARS-CoV-2 M^pro; [2]): 714 nM
- IC50 (SARS-CoV-2 M^pro; [3]): 768 nM
- IC50 (SARS-CoV-2 M^pro; [4]): 622 nM
- IC50 (SARS-CoV-2 M^pro; [5]): 714 ± 182 nM
- IC50 (SARS-CoV-2 M^pro; [6]): 625 ± 102 nM
- IC50 (SARS-CoV-2 M^pro; [7]): 786 ± 151 nM
- IC50 (SARS-CoV-2 M^pro; read-out: IC50): 710 nM
- cellular toxicity (cell viability) (MRC-5 cells): minimal toxicity
- effect on cytopathogenic effect (CPE) of the virus [1]: some reduction in CPE
- effect on cytopathogenic effect (CPE) of the virus ([1]; high multiplicity of infection (high viral load), MRC-5, 72 h): no inhibitory effect

Compound: Cc1ccc(-c2oc3ccccc3c(=O)c2O)cc1 [Compound 2]
- inhibition curve, in words (SARS-CoV-2 M^pro): atypical inhibition results

Compound: Cc1ccc(-n2c(/C=C/c3ccc([N+](=O)[O-])cc3)nc3ccccc3c2=O)cc1 [Compound 3]
- IC50 (SARS-CoV-2 M^pro; [5]): 38300 ± 18300 nM

Compound: Nc1nnc(Sc2ccc([N+](=O)[O-])cn2)s1 [Compound 4]
- IC50 (SARS-CoV-2 M^pro; [8]): 6220 ± 1790 nM

Compound: O=C1C2C3C=CC(C3)C2C(=O)C2C3C=CC(C3)C12 (centres unmarked) [Compound 5]
- IC50 (SARS-CoV-2 M^pro; [8]): 9790 ± 1450 nM

Compound: c1ccc(Sc2ncnc3c2oc2ccccc23)cc1 [Compound 6]
- IC50 (SARS-CoV-2 M^pro; [8]): 4980 ± 1280 nM

Compound: O=c1sc2ccccc2n1Cc1ccccc1 [Compound 7, 3-benzyl-1,3-benzothiazol-2-one]
- inhibition curve, in words (SARS-CoV-2 M^pro): atypical inhibition results
- change of inhibition results upon addition of detergent (SARS-CoV-2 M^pro): did not change significantly
- IC50 (SARS-CoV-2 M^pro; IC50, Figure 2(l), Trial 1): 174 nM
- IC50 (SARS-CoV-2 M^pro; IC50, Figure 2(l), Trial 2): 179 nM
- IC50 (SARS-CoV-2 M^pro; IC50, Figure 2(l), With Triton-X100): 241 nM
- potency, in words (SARS-CoV-2 M^pro; at low concentrations, fluorescent signal increased at high compound concentrations): highly potent
- effect on viral titres (TCID50) (HCoV 229E): substantial reduction in the viral load
- cellular toxicity (cell viability) (MRC-5 cells): minimal toxicity
- effect on cytopathogenic effect (CPE) of the virus ([1]; across all the viral doses tested, MRC-5, 72 h): very significant reduction in CPE

Compound: [O-][n+]1ccccc1SSc1cccc[n+]1[O-] [Compound 8, dipyrithione]
- change of inhibition results upon addition of detergent (SARS-CoV-2 M^pro): did not change significantly
- IC50 (SARS-CoV-2 M^pro; [2]): 172 nM
- IC50 (SARS-CoV-2 M^pro; [3]): 171 nM
- IC50 (SARS-CoV-2 M^pro; [4]): 266 nM
- IC50 (SARS-CoV-2 M^pro; [5]): 172 ± 25 nM
- IC50 (SARS-CoV-2 M^pro; [6]): 285 ± 38 nM
- IC50 (SARS-CoV-2 M^pro; [7]): 173 ± 23 nM
- IC50 (SARS-CoV-2 M^pro; read-out: IC50): 180 nM
- cellular toxicity (cell viability) (MRC-5 cells): limited toxicity

Compound: Nc1nnc(Sc2ncc([N+](=O)[O-])s2)s1 [Compound 9, halicin]
- change of inhibition results upon addition of detergent (SARS-CoV-2 M^pro): did not change significantly
- IC50 (SARS-CoV-2 M^pro; IC50): 420 nM
- IC50 (SARS-CoV-2 M^pro; IC50, Figure 2(l), Trial 1): 420 nM
- IC50 (SARS-CoV-2 M^pro; IC50, Figure 2(l), Trial 2): 419 nM
- IC50 (SARS-CoV-2 M^pro; [8]): 420 ± 49 nM
- IC50 (SARS-CoV-2 M^pro; IC50, Figure 4, With Triton-X100 (0.1%), unit inferred): 461 ± 81 nM
- cellular toxicity (cell viability) (MRC-5 cells): toxic
